The subject of series [1] is Green Peach Aphid (Myzus Persicae). The experiment in a line: Insecticidal test for green peach aphid in foliar spray assay (col. MYZUPE). The format is in vivo. The note with it: Myzus persicae, 72 h, read-out: MYZUPE 200 ppm (Corrected % Control, rating). A digest of the protocol:
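Cabbage seedlings with 2-3 true leaves, infested with 20-50 wingless adult and nymph aphids one day earlier, sprayed to runoff at 200 ppm (acetone/methanol stock diluted in 0.025% Tween 20), four pots per treatment. After 3 days at ~25 °C, 40% RH, live aphids counted; corrected % control versus solvent-sprayed plants.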

Series [2] has as its system Sweetpotato Whitefly-Crawler (Bemisia Tabaci). The experiment in a line: Insecticidal test for sweetpotato whitefly-crawler in foliar spray assay (col. BEMITA). The format is in vivo. Conditions: Bemisia tabaci, read-out: BEMITA 200 ppm (Corrected % Control, rating). A digest of the protocol:
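Cotton plants (one 3-5 cm true leaf) infested with whitefly eggs (100-300/plant), held 5-6 days at 82° F, 50% RH until crawlers developed. Sprayed to runoff at 200 ppm (acetone stock diluted in 0.025% Tween 20), four plants per treatment. Live nymphs counted after 8-9 days; % control by Abbott's correction versus solvent check.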

This passage reports pest or weed control and melting point results from patent US8853246B2 (Dow AgroSciences LLC, priority 2009, dated 2014).

The structures appear in SMILES notation. Like-named read-outs stand apart in the source and are kept apart here.

Turning to `CC(=O)N(C)c1cnc(-c2cccnc2)s1` [Compound 22], the melting point was 162 to 163 °C. Also, the pest or weed control at 200 ppm in series [1] (green peach aphid) is less than 80%. The pest or weed control at 200 ppm in series [2] (sweetpotato whitefly-crawler) was less than 80%.
`CN(C(=O)C(C)(C)C)c1cnc(-c2cccnc2)s1` [Compound 23] yielded a melting point of 102 to 105 °C. Besides, the pest or weed control at 200 ppm in series [1] (green peach aphid) is 80 to 100%. For the same compound, the pest or weed control at 200 ppm in series [2] (sweetpotato whitefly-crawler) was less than 80%.
On the same counts, the results for `CC(C)C(=O)N(C)c1cnc(-c2cccnc2)s1` [Compound 24] are 113 to 114 °C, 80 to 100% and 80 to 100%.
As for `CN(C(=O)CC(F)(F)F)c1cnc(-c2cccnc2)s1` [Compound 25], the melting point fell in the range of 126 to 128 °C. Moreover, in series [1] (green peach aphid), the pest or weed control at 200 ppm lay within 80 to 100%. Moreover, the pest or weed control at 200 ppm in series [2] (sweetpotato whitefly-crawler) was less than 80%.
`CN(C(=O)c1cccnc1)c1cnc(-c2cccnc2)s1` [Compound 26]: the melting point lay within 173 to 175 °C. Further, the pest or weed control at 200 ppm in series [1] (green peach aphid) is less than 80%. Further, the pest or weed control at 200 ppm in series [2] (sweetpotato whitefly-crawler) was less than 80%.
On to `COC(=O)CCC(=O)N(C)c1cnc(-c2cccnc2)s1` [Compound 27], for which the melting point lay in the range of 127 to 129 °C. Also, the pest or weed control at 200 ppm in series [1] (green peach aphid) fell in the range of 80 to 100%. Moreover, the pest or weed control at 200 ppm in series [2] (sweetpotato whitefly-crawler) is less than 80%.
In turn, `CSCC(C)C(=O)N(C)c1cnc(-c2cccnc2)s1` (centres unmarked) [Compound 28] yielded a melting point of 98 to 100 °C. In series [1] (green peach aphid), the pest or weed control at 200 ppm fell in the range of 80 to 100%. Besides, the pest or weed control at 200 ppm in series [2] (sweetpotato whitefly-crawler) lay within 80 to 100%.
`CSCC(C)(C)C(=O)N(C)c1cnc(-c2cccnc2)s1` [Compound 29] returned a melting point of 92 to 94 °C. Also, in series [1] (green peach aphid), the pest or weed control at 200 ppm fell in the range of 80 to 100%. Also, the pest or weed control at 200 ppm in series [2] (sweetpotato whitefly-crawler) lay in the range of 80 to 100%.
`CSCCC(=O)N(C)c1cnc(-c2cncc(F)c2)s1` [Compound 30, N-[2-(5-fluoro-pyridin-3-yl)-thiazol-5-yl]-N-methyl-3-methylsulfanyl-propionamide] had a melting point of 111 to 114 °C. The pest or weed control at 200 ppm in series [1] (green peach aphid) is 80 to 100%. In addition, the pest or weed control at 200 ppm in series [2] (sweetpotato whitefly-crawler) was less than 80%.
On the same counts, the results for `CSCC(C)C(=O)N(C)c1cnc(-c2cncc(F)c2)s1` (centres unmarked) [Compound 31] are 75 to 77 °C, 80 to 100% and 80 to 100%.
As for `CC(C)C(=O)N(C)c1cnc(-c2cncc(F)c2)s1` [Compound 32], the melting point was 156 to 158 °C. Moreover, the pest or weed control at 200 ppm in series [1] (green peach aphid) is 80 to 100%. For the same compound, the pest or weed control at 200 ppm in series [2] (sweetpotato whitefly-crawler) is 80 to 100%.
Compound `CN(C(=O)C(C)(C)C)c1cnc(-c2cncc(F)c2)s1` [Compound 33] registered a melting point of 153 to 155 °C. Besides, the pest or weed control at 200 ppm in series [1] (green peach aphid) is less than 80%. The pest or weed control at 200 ppm in series [2] (sweetpotato whitefly-crawler) is 80 to 100%.
On the same counts, the results for `CSCC(C)(C)C(=O)N(C)c1sc(-c2cccnc2)nc1C` [Compound 34] are 83 to 88 °C, 80 to 100% and 80 to 100%.
Turning to `Cc1nc(-c2cncc(F)c2)sc1N(C)C(=O)C(C)C` [Compound 41], the melting point is 123 °C. In addition, in series [1] (green peach aphid), the pest or weed control at 200 ppm was 80 to 100%. For the same compound, the pest or weed control at 200 ppm in series [2] (sweetpotato whitefly-crawler) was in the range of 80 to 100%.
Regarding `CSCC(C)(C)C(=O)N(C)c1sc(-c2cncnc2)nc1C` [Compound 53], the melting point lay in the range of 123 to 125 °C. Besides, the pest or weed control at 200 ppm in series [1] (green peach aphid) was less than 80%. Besides, the pest or weed control at 200 ppm in series [2] (sweetpotato whitefly-crawler) was 80 to 100%.
In the case of `CSCCC(=O)Nc1sc(-c2cccnc2)nc1C` [Compound 55], the melting point lay within 136 to 139 °C. The pest or weed control at 200 ppm in series [1] (green peach aphid) was 80 to 100%. Moreover, the pest or weed control at 200 ppm in series [2] (sweetpotato whitefly-crawler) is 80 to 100%.
For the compound `Cc1nc(-c2ccc(F)nc2)sc1NC(=O)C(C)C` [Compound 71], the melting point is 182 to 186 °C. The pest or weed control at 200 ppm in series [1] (green peach aphid) was 80 to 100%.
On the same counts, the results for `CN(C(=O)OCC[S+](C)[O-])c1cnc(-c2cncc(F)c2)s1` (centres unmarked) [Compound 84] are 153 to 155 °C and 80 to 100%.
Regarding `CCN(C(=O)OC(C)(C)C)c1cnc(-c2cccnc2)s1` [Compound 477], the melting point lay in the range of 65 to 67 °C.
Consider `CN(C(=O)C1CCCC1)c1sc(-c2cccnc2)nc1Cl` [Compound 553], for which the pest or weed control at 200 ppm in series [1] (Abbott's correction formula) was less than 80%; in series [2] (Abbott's correction formula), 80 to 100%.
For the compound `CCN(C(=O)c1cccs1)c1sc(-c2cccnc2)nc1Cl` [Compound 554], the pest or weed control at 200 ppm in series [1] (Abbott's correction formula) and in series [2] (Abbott's correction formula) was less than 80% in each case.
`CCN(C(=O)c1scnc1C)c1sc(-c2cccnc2)nc1Cl` [Compound 555]: the pest or weed control at 200 ppm was 80 to 100% in series [1] (Abbott's correction formula) and less than 80% in series [2] (Abbott's correction formula).
For `CCN(C(=O)c1snnc1C)c1sc(-c2cccnc2)nc1Cl` [Compound 556], the pest or weed control at 200 ppm is 80 to 100% in series [1] (Abbott's correction formula) and less than 80% in series [2] (Abbott's correction formula).
For the compound `CCN(C(=O)Cc1ccc(C(C)=O)s1)c1sc(-c2cccnc2)nc1Cl` [Compound 557], the pest or weed control at 200 ppm in series [1] (Abbott's correction formula) and in series [2] (Abbott's correction formula) was less than 80% each time.
On to `CCC(C[S+](C)[O-])C(=O)N(CC)c1sc(-c2cccnc2)nc1Cl` (centres unmarked) [Compound 559], for which the pest or weed control at 200 ppm in series [1] (Abbott's correction formula) and in series [2] (Abbott's correction formula) was 80 to 100% in each case.
For the compound `CCC(CS(C)(=O)=O)C(=O)N(CC)c1sc(-c2cccnc2)nc1Cl` (centres unmarked) [Compound 560], the pest or weed control at 200 ppm in series [1] (Abbott's correction formula) and in series [2] (Abbott's correction formula) was 80 to 100% each time.
Take `CCN(C(=O)Cc1ccc(Cl)nc1)c1sc(-c2cccnc2)nc1Cl` [Compound 561]: the figures for the pest or weed control at 200 ppm in series [1] (Abbott's correction formula) and in series [2] (Abbott's correction formula) were 80 to 100% and less than 80%, respectively.
In the case of `CCN(C(=O)Cc1ccncc1)c1sc(-c2cccnc2)nc1Cl` [Compound 562], the values for the pest or weed control at 200 ppm in series [1] (Abbott's correction formula) and in series [2] (Abbott's correction formula) were 80 to 100% and less than 80%, respectively.
With `CCN(C(=O)c1c(F)cccc1F)c1sc(-c2cccnc2)nc1Cl` [Compound 563], the pest or weed control at 200 ppm in series [1] (Abbott's correction formula) is 80 to 100%; in series [2] (Abbott's correction formula), less than 80%.
Consider `CCN(C(=O)C(C)C(C)[S+](C)[O-])c1sc(-c2cccnc2)nc1Cl` (centres unmarked) [Compound 565], for which the pest or weed control at 200 ppm in series [1] (Abbott's correction formula) and in series [2] (Abbott's correction formula) was 80 to 100% each time.
Take `CN(C(=O)C1(C)CC1)c1sc(-c2cccnc2)nc1Cl` [Compound 566]: the pest or weed control at 200 ppm in series [1] (Abbott's correction formula) and in series [2] (Abbott's correction formula) was 80 to 100% throughout.
`Cc1nc(-c2cccnc2)sc1N(CCS(C)(=O)=O)C(=O)OC(C)(C)C` [Compound 568]: the pest or weed control at 200 ppm in series [1] (Abbott's correction formula) and in series [2] (Abbott's correction formula) was less than 80% in each case.
As to `CC1CC1C(=O)N(C)c1sc(-c2cccnc2)nc1Cl` (centres unmarked) [Compound 569], the pest or weed control at 200 ppm in series [1] (Abbott's correction formula) and in series [2] (Abbott's correction formula) was 80 to 100% in each case.
With `CCN(C(=O)c1cccnc1)c1sc(-c2cccnc2)nc1Cl` [Compound 571], the figures for the pest or weed control at 200 ppm in series [1] (Abbott's correction formula) and in series [2] (Abbott's correction formula) were 80 to 100% and less than 80%, respectively.
On the same counts, the results for `CCN(C(=O)c1ccoc1)c1sc(-c2cccnc2)nc1Cl` [Compound 573] are less than 80% and less than 80%.
For `CCN(C(=O)c1ccccn1)c1sc(-c2cccnc2)nc1Cl` [Compound 574], the pest or weed control at 200 ppm was 80 to 100% in series [1] (Abbott's correction formula) and less than 80% in series [2] (Abbott's correction formula).
Turning to `CCN(C(=O)Cc1ccc(Cl)cc1)c1sc(-c2cccnc2)nc1Cl` [Compound 575], the results for the pest or weed control at 200 ppm in series [1] (Abbott's correction formula) and in series [2] (Abbott's correction formula) were 80 to 100% and less than 80%, respectively.
For the compound `CCN(C(=O)c1ccco1)c1sc(-c2cccnc2)nc1Cl` [Compound 576], the pest or weed control at 200 ppm was 80 to 100% in series [1] (Abbott's correction formula) and less than 80% in series [2] (Abbott's correction formula).
`CCN(C(=O)c1cnn(C(C)(C)C)c1C)c1sc(-c2cccnc2)nc1Cl` [Compound 578]: the pest or weed control at 200 ppm in series [1] (Abbott's correction formula) and in series [2] (Abbott's correction formula) was 80 to 100% in each case.
Regarding `Cc1nc(-c2cncc(F)c2)sc1N(C)C(=O)C1CCCNC1` (centres unmarked) [Compound 581], the pest or weed control at 200 ppm in series [1] (Abbott's correction formula) and in series [2] (Abbott's correction formula) was less than 80% throughout.
Turning to `CCCC(C)C(=O)N1CCCC(C(=O)N(C)c2sc(-c3cncc(F)c3)nc2C)C1` (centres unmarked) [Compound 582, 1-(2-methyl-pentanoyl)-piperidine-3-carboxylic acid [2-(5-fluoro-pyridin-3-yl)-4-methyl-thiazol-5-yl]-methyl-amide], the pest or weed control at 200 ppm in series [1] (Abbott's correction formula) and in series [2] (Abbott's correction formula) was 80 to 100% in each case.
For `COCC(=O)N1CCCC(C(=O)N(C)c2sc(-c3cncc(F)c3)nc2C)C1` (centres unmarked) [Compound 583], the pest or weed control at 200 ppm in series [1] (Abbott's correction formula) and in series [2] (Abbott's correction formula) was 80 to 100% each time.
Take `Cc1nc(-c2cncc(F)c2)sc1N(C)C(=O)C1CCCN(C(=O)CC(F)(F)F)C1` (centres unmarked) [Compound 584]: the pest or weed control at 200 ppm in series [1] (Abbott's correction formula) and in series [2] (Abbott's correction formula) was less than 80% throughout.
Take `CCOC(=O)N1CCCC(C(=O)N(C)c2sc(-c3cncc(F)c3)nc2C)C1` (centres unmarked) [Compound 586]: the pest or weed control at 200 ppm in series [1] (Abbott's correction formula) and in series [2] (Abbott's correction formula) was 80 to 100% each time.
Consider `CCCCN1CCCC(C(=O)N(C)c2sc(-c3cncc(F)c3)nc2C)C1` (centres unmarked) [Compound 587], for which the pest or weed control at 200 ppm in series [1] (Abbott's correction formula) and in series [2] (Abbott's correction formula) was 80 to 100% throughout.
With `CSCC(C)C(=O)Nc1sc(-c2cccnc2)nc1Cl` (centres unmarked) [Compound 588], the pest or weed control at 200 ppm in series [1] (Abbott's correction formula) and in series [2] (Abbott's correction formula) was 80 to 100% in each case.

Usually melting point stands for the temperature, or range, at which the solid turns liquid.
